# Earlier results in US20030111427A1, “Composition for controlling the dissolving rate of solid sanitizers” (Arch Chemicals, Inc., priority 2001, published 2003).
# Details: at 30° C.
compound,measurement,setting,value
[Ca+2].[O-]Cl.[O-]Cl [calcium hypochlorite],time for all of the calcium hypochlorite to dissolve,21.6 grams in 100 grams of water,less than 5 minutes
same,amount that dissolves in 100 grams of water,in 100 grams of water,about 21.6 grams
